Source: patent US20230081426A1, “COMPOUNDS AND METHODS FOR KRAS MODULATION AND INDICATIONS THEREFOR” (Plexxikon Inc., priority 2020, published 2023)
Read-outs that look alike come from different tables or passages of the source.

Experiments:
[1] = target: T1, G12V-mutant human KRAS (amino acid residues 1-188) (Homo sapiens, UniProt P01116, G12V); assay: KRAS Binding Competition Assay (AlphaScreen; biotinylated KRpep-2d analogue), G12V; details: geometric mean, read-out: KRAS GMean IC50 (uM) MUTATION: G12V
T1 construct: G12V-mutant human KRAS (amino acid residues 1-188) with FLAG tag was purified from E. coli; made in house; host or cells: E. coli

[2] = target: T2, G12C-mutant human KRAS (amino acid residues 1-188) (Homo sapiens, UniProt P01116, G12C); assay: KRAS Binding Disruption Assay (AlphaScreen; biotinylated KRpep-2d analogue or RAF1-RBD), G12C; details: geometric mean, read-out: KRAS GMean IC50 (uM) MUTATION: G12C
T2 construct: G12D or G12C-mutant human KRAS (amino acid residues 1-188) with FLAG tag; made in house; host or cells: E. coli
Method in brief: (§1)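 AlphaScreen readout: signal falls as compound displaces biotinylated KRpep-2d analogue or RAF1-RBD from mutant KRAS. Both partners at 5-20 nM, 1 h binding at 25° C, then 10 μg/mL Anti-Flag acceptor and streptavidin donor beads for 1 h. IC50 by nonlinear regression of % inhibition.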

[3] = target: T3, G12D-mutant human KRAS (amino acid residues 1-188) (Homo sapiens, UniProt P01116, G12D); assay: KRAS Binding Disruption Assay (AlphaScreen; biotinylated KRpep-2d analogue or RAF1-RBD), G12D; details: for IC50: geometric mean, read-out: KRAS GMean IC50 (uM) MUTATION: G12D
T3 construct: G12D or G12C-mutant human KRAS (amino acid residues 1-188) with FLAG tag; made in house; host or cells: E. coli
Method in brief: as §1

SMILES: CN1CCC[C@H]1COc1nc(N2C[C@H]3CC[C@@H](C2)N3)c2cc(Cl)c(-c3c(O)cccc3F)c(F)c2n1 [P-0027, 2-(4-((1R,5S)-3,8-diazabicyclo[3.2.1]octan-3-yl)-6-chloro-8-fluoro-2-(((S)-1-methylpyrrolidin-2-yl)methoxy)quinazolin-7-yl)-3-fluorophenol]
- IC50 [1]: 10 to 100 µM
- IC50 [2]: 10 to 100 µM
- IC50 ([3]; KRAS G12D): 0.0001 to 10 µM
- Improved KRAS G12D Biochemical Potency of Compounds with Bridged vs Non-Bridged R^1 Groups ([3]; Table 3, fold more potent than non-bridged version at the R1 variable): P-0027 is about 392 times more potent than its non- bridged version at the R^1 variable.
- IC50 ([3]; Table 3, bridged vs non-bridged R1): 0.038 µM

SMILES: CN1CCC[C@H]1COc1nc(N2CC3CCC2CN3)c2cc(Cl)c(-c3cc(O)cc4ccccc34)c(F)c2n1 (stereo partly drawn) [P-0030, 4-(4-(2,5-diazabicyclo[2.2.2]octan-2-yl)-6-chloro-8-fluoro-2-(((S)-1-methylpyrrolidin-2-yl)methoxy)quinazolin-7-yl)naphthalen-2-ol]
- IC50 [1]: 10 to 100 µM
- IC50 [2]: 10 to 100 µM
- IC50 ([3]; KRAS G12D): 0.0001 to 10 µM

SMILES: CN1CCC(Oc2nc(N3C[C@H]4CC[C@@H](C3)N4)c3cc(Cl)c(-c4cc(O)cc5ccccc45)c(F)c3n2)CC1 [P-0032, 4-(4-((1R,5S)-3,8-diazabicyclo[3.2.1]octan-3-yl)-6-chloro-8-fluoro-2-((1-methylpiperidin-4-yl)oxy)quinazolin-7-yl)naphthalen-2-ol]
- IC50 [1]: 10 to 100 µM
- IC50 [2]: 10 to 100 µM
- IC50 ([3]; KRAS G12D): 0.0001 to 10 µM

SMILES: Oc1cc(-c2c(Cl)cc3c(N4C[C@H]5CC[C@@H](C4)N5)nc(OCC45CCCN4CCC5)nc3c2F)c2ccccc2c1 [P-0034, 4-(4-((1R,5S)-3,8-diazabicyclo[3.2.1]octan-3-yl)-6-chloro-8-fluoro-2-((tetrahydro-1H-pyrrolizin-7a(5H)-yl)methoxy)quinazolin-7-yl)naphthalen-2-ol]
- IC50 [1]: 0.0001 to 10 µM
- IC50 [2]: 0.0001 to 10 µM
- IC50 ([3]; KRAS G12D): 0.0001 to 10 µM

SMILES: CN1CCC[C@H]1COc1nc(N2C[C@H]3CC[C@@H](C2)N3)c2ccc(-c3cc(O)cc4ccccc34)cc2n1 [P-0037, 4-(4-((1R,5S)-3,8-diazabicyclo[3.2.1]octan-3-yl)-2-(((S)-1-methylpyrrolidin-2-yl)methoxy)quinazolin-7-yl)naphthalen-2-ol]
- IC50 [1]: 0.0001 to 10 µM
- IC50 [2]: 0.0001 to 10 µM
- IC50 ([3]; KRAS G12D): 0.0001 to 10 µM

SMILES: CN1CCC[C@H]1COc1nc(N2CC3CC2CN3)c2cc(Cl)c(-c3cc(O)cc4ccccc34)c(F)c2n1 (stereo partly drawn) [P-0038, 4-(4-(2,5-diazabicyclo[2.2.1]heptan-2-yl)-6-chloro-8-fluoro-2-(((S)-1-methylpyrrolidin-2-yl)methoxy)quinazolin-7-yl)naphthalen-2-ol]
- IC50 [1]: 10 to 100 µM
- IC50 [2]: 10 to 100 µM
- IC50 ([3]; KRAS G12D): 0.0001 to 10 µM

SMILES: CN1CCC[C@H]1COc1nc(N2C[C@H]3CC[C@@H](C2)N3)c2ccc(-c3cc(O)cc4ccccc34)c(F)c2n1 [P-0044, 4-(4-((1R,5S)-3,8-diazabicyclo[3.2.1]octan-3-yl)-8-fluoro-2-(((S)-1-methylpyrrolidin-2-yl)methoxy)quinazolin-7-yl)naphthalen-2-ol]
- IC50 [1]: 0.0001 to 10 µM
- IC50 [2]: 0.0001 to 10 µM
- IC50 ([3]; KRAS G12D): 0.0001 to 10 µM

SMILES: Oc1cc(-c2ccc3c(N4C[C@H]5CC[C@@H](C4)N5)nc(OCC45CCCN4CCC5)nc3c2F)c2ccccc2c1 [P-0048, 4-(4-((1R,5S)-3,8-diazabicyclo[3.2.1]octan-3-yl)-8-fluoro-2-((tetrahydro-1H-pyrrolizin-7a(5H)-yl)methoxy)quinazolin-7-yl)naphthalen-2-ol]
- IC50 [1]: 0.0001 to 10 µM
- IC50 [2]: 0.0001 to 10 µM
- IC50 ([3]; KRAS G12D): 0.0001 to 10 µM

SMILES: Oc1cccc(F)c1-c1ccc2c(N3C[C@H]4CC[C@@H](C3)N4)nc(OCC34CCCN3CCC4)nc2c1F [P-0049, 2-(4-((1R,5S)-3,8-diazabicyclo[3.2.1]octan-3-yl)-8-fluoro-2-((tetrahydro-1H-pyrrolizin-7a(5H)-yl)methoxy)quinazolin-7-yl)-3-fluorophenol]
- IC50 [1]: 100 to 1000 µM
- IC50 [2]: 10 to 100 µM
- IC50 ([3]; KRAS G12D): 0.0001 to 10 µM

SMILES: Oc1cc(-c2ccc3c(C4C[C@H]5CC[C@@H](C4)N5)nc(OCC45CCCN4CCC5)nc3c2)c2ccccc2c1 (stereo partly drawn) [P-0053, 4-(4-((1R,5S)-8-azabicyclo[3.2.1]octan-3-yl)-2-((tetrahydro-1H-pyrrolizin-7a(5H)-yl)methoxy)quinazolin-7-yl)naphthalen-2-ol]
- IC50 [1]: 10 to 100 µM
- IC50 [2]: 10 to 100 µM
- IC50 ([3]; KRAS G12D): 0.0001 to 10 µM

SMILES: Oc1cc(-c2ncc3c(N4C[C@H]5CC[C@@H](C4)N5)nc(OCC45CCCN4CCC5)nc3c2F)c2ccccc2c1 [P-0055, 4-(4-((1R,5S)-3,8-diazabicyclo[3.2.1]octan-3-yl)-8-fluoro-2-((tetrahydro-1H-pyrrolizin-7a(5H)-yl)methoxy)pyrido[4,3-d]pyrimidin-7-yl)naphthalen-2-ol]
- IC50 [1]: 0.0001 to 10 µM
- IC50 [2]: 0.0001 to 10 µM
- IC50 ([3]; KRAS G12D): 0.0001 to 10 µM

SMILES: CN1CCC[C@H]1COc1nc(N2C[C@H]3CC[C@@H](C2)N3)c2cc(CO)c(-c3cc(O)cc4ccccc34)c(F)c2n1 [P-0056, 4-[4-(3,8-diazabicyclo[3.2.1]octan-3-yl)-8-fluoro-6-(hydroxymethyl)-2-[[(2S)-1-methylpyrrolidin-2-yl]methoxy]quinazolin-7-yl]naphthalen-2-ol]
- IC50 [1]: 0.0001 to 10 µM
- IC50 [2]: 0.0001 to 10 µM
- IC50 ([3]; KRAS G12D): 0.0001 to 10 µM

SMILES: CO[C@@H]1C[C@@H](COc2nc(N3C[C@H]4CC[C@@H](C3)N4)c3ccc(-c4cc(O)cc5ccccc45)cc3n2)N(C)C1 [P-0060, 4-(4-((1R,5S)-3,8-diazabicyclo[3.2.1]octan-3-yl)-2-(((2S,4R)-4-methoxy-1-methylpyrrolidin-2-yl)methoxy)quinazolin-7-yl)naphthalen-2-ol]
- IC50 [1]: 0.0001 to 10 µM
- IC50 [2]: 0.0001 to 10 µM
- IC50 ([3]; KRAS G12D): 0.0001 to 10 µM

SMILES: CCC(=O)N1[C@@H]2CC[C@H]1CN(c1nc(OCC34CCCN3CCC4)nc3cc(-c4cc(O)cc5ccccc45)ccc13)C2 [P-0063, 1-((1R,5S)-3-(7-(3-hydroxynaphthalen-1-yl)-2-((tetrahydro-1H-pyrrolizin-7a(5H)-yl)methoxy)quinazolin-4-yl)-3,8-diazabicyclo[3.2.1]octan-8-yl)propan-1-one]
- IC50 [1]: 0.0001 to 10 µM
- IC50 [2]: 0.0001 to 10 µM
- IC50 ([3]; KRAS G12D): 0.0001 to 10 µM

SMILES: O=C(O)CCC(=O)N1[C@@H]2CC[C@H]1CN(c1nc(OCC34CCCN3CCC4)nc3cc(-c4cc(O)cc5ccccc45)ccc13)C2 [P-0064, 4-((1R,5S)-3-(7-(3-hydroxynaphthalen-1-yl)-2-((tetrahydro-1H-pyrrolizin-7a(5H)-yl)methoxy)quinazolin-4-yl)-3,8-diazabicyclo[3.2.1]octan-8-yl)-4-oxobutanoic acid]
- IC50 [1]: 0.0001 to 10 µM
- IC50 [2]: 0.0001 to 10 µM
- IC50 ([3]; KRAS G12D): 0.0001 to 10 µM

SMILES: O=C(c1ccccn1)N1[C@@H]2CC[C@H]1CN(c1nc(OCC34CCCN3CCC4)nc3cc(-c4cc(O)cc5ccccc45)ccc13)C2 [P-0065, ((1R,5S)-3-(7-(3-hydroxynaphthalen-1-yl)-2-((tetrahydro-1H-pyrrolizin-7a(5H)-yl)methoxy)quinazolin-4-yl)-3,8-diazabicyclo[3.2.1]octan-8-yl)(pyridin-2-yl)methanone]
- IC50 [1]: 0.0001 to 10 µM
- IC50 [2]: 0.0001 to 10 µM
- IC50 ([3]; KRAS G12D): 10 to 100 µM

SMILES: CN(C)CC(=O)N1[C@@H]2CC[C@H]1CN(c1nc(OCC34CCCN3CCC4)nc3cc(-c4cc(O)cc5ccccc45)ccc13)C2 [P-0066, 2-(dimethylamino)-1-((1R,5S)-3-(7-(3-hydroxynaphthalen-1-yl)-2-((tetrahydro-1H-pyrrolizin-7a(5H)-yl)methoxy)quinazolin-4-yl)-3,8-diazabicyclo[3.2.1]octan-8-yl)ethan-1-one]
- IC50 [1]: 0.0001 to 10 µM
- IC50 [2]: 0.0001 to 10 µM
- IC50 ([3]; KRAS G12D): 0.0001 to 10 µM

SMILES: NC(=O)N1[C@@H]2CC[C@H]1CN(c1nc(OCC34CCCN3CCC4)nc3cc(-c4cc(O)cc5ccccc45)ccc13)C2 [P-0067, (1R,5S)-3-(7-(3-hydroxynaphthalen-1-yl)-2-((tetrahydro-1H-pyrrolizin-7a(5H)-yl)methoxy)quinazolin-4-yl)-3,8-diazabicyclo[3.2.1]octane-8-carboxamide]
- IC50 [1]: 0.0001 to 10 µM
- IC50 [2]: 0.0001 to 10 µM
- IC50 ([3]; KRAS G12D): 0.0001 to 10 µM

SMILES: COC(=O)CCC(=O)N1[C@@H]2CC[C@H]1CN(c1nc(OCC34CCCN3CCC4)nc3cc(-c4cc(O)cc5ccccc45)ccc13)C2 [P-0068, methyl 4-((1R,5S)-3-(7-(3-hydroxynaphthalen-1-yl)-2-((tetrahydro-1H-pyrrolizin-7a(5H)-yl)methoxy)quinazolin-4-yl)-3,8-diazabicyclo[3.2.1]octan-8-yl)-4-oxobutanoate]
- IC50 [1]: 0.0001 to 10 µM
- IC50 [2]: 0.0001 to 10 µM
- IC50 ([3]; KRAS G12D): 0.0001 to 10 µM

SMILES: Cc1cccc2cc(O)cc(-c3ccc4c(N5C[C@H]6CC[C@@H](C5)N6)nc(OCC56CCCN5CCC6)nc4c3F)c12 [P-0085, 4-(4-((1R,5S)-3,8-diazabicyclo[3.2.1]octan-3-yl)-8-fluoro-2-((tetrahydro-1H-pyrrolizin-7a(5H)-yl)methoxy)quinazolin-7-yl)-5-methylnaphthalen-2-ol]
- IC50 [1]: 0.0001 to 10 µM
- IC50 [2]: 0.0001 to 10 µM
- IC50 ([3]; KRAS G12D): 0.0001 to 10 µM

SMILES: Cc1cccc2cc(O)cc(-c3c(F)cc4c(N5C[C@H]6CC[C@@H](C5)N6)nc(OCC56CCCN5CCC6)nc4c3F)c12 [P-0088, 4-(4-((1R,5S)-3,8-diazabicyclo[3.2.1]octan-3-yl)-6,8-difluoro-2-((tetrahydro-1H-pyrrolizin-7a(5H)-yl)methoxy)quinazolin-7-yl)-5-methylnaphthalen-2-ol]
- IC50 [1]: 0.0001 to 10 µM
- IC50 [2]: 0.0001 to 10 µM
- IC50 ([3]; KRAS G12D): 0.0001 to 10 µM
